Experimental findings from patent US20060159617A1, “Small technetium-99m and rhenium labeled agents and methods for imaging tissues, organs and tumors” (priority 2002, published 2006) are described below.

The structures appear in SMILES notation.

One experiment concerns the target T1, σ2 receptor (Rattus norvegicus, UniProt Q5U3Y7).
T1 construct: Rat liver membranes were prepared from male Sprague-Dawley rat livers as previously described; from tissue; host or cells: male Sprague-Dawley rat liver membranes
T1 sequence (Q5U3Y7 1-176): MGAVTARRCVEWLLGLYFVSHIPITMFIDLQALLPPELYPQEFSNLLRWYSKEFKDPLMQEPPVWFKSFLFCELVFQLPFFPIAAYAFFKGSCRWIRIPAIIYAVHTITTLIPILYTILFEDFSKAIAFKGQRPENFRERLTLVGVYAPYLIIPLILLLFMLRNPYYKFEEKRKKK
Put plainly: σ2 receptor competition binding assay with [3H]-DTG, σ1 masked. The following applies: apparent Ki, rat liver membranes. As to the method: Rat liver membranes were prepared from male Sprague-Dawley rat livers as previously described (Eur. J. Pharmacol.—Mol. Pharmacol. Sect. 1994, 268, 9-18). The in vitro σ2 receptor binding affinities of rhenium coordinated complexes were determined in a competition assay using rat livers and [^3H]-DTG (31 Ci/mmol, NEN Life Science Inc., Cambridge, Mass.) as radioligand in the presence of 10 μM 1-pyrrolidinylethyl 3,4-dichlorophenylacetate oxalate (ACT915 oxalate) to mask σ1 receptors (Bioorg. & Med. Chem. Lett. 2000, 10, 17-18). Competition assays were performed with twelve concentrations of the nonradioactive rhenium complexes ranging from 1×10^−10 to 1×10^−3 and protein samples (0.15 mg of membrane protein) in a total volume of 0.25 mL of Tris-HCl (50 mM, pH 8.0) for 120 min at 25° C. All other manipulations and data analysis were performed as described vide supra for the σ1-receptor assays.

A further experiment addresses α1 receptor. Put plainly: Alpha-1 receptor competition binding assay with [3H]-Prazosin. Conditions: apparent Ki, rat frontal cortex. How it is done: The in vitro α1 receptor binding affinities of rhenium coordinated complexes were determined in a competition assay using rat frontal cortex and high-affinity α1 ligand [^3H]-Prazosin (80 Ci/mmol, NEN Life Science Inc., Cambridge, Mass.). See, Eur. J. Nucl. Med. 2002, 29, 82-87.
(§1) The frontal cortex of rat brain was prepared as described above and store at −70° C. until used in the binding assays. Ten concentrations of the nonradioactive rhenium complexes ranging from 1×10^−10 to 1×10^−3 and protein samples (0.15 mg of membrane protein) were incubated with 1.5 nM [^3H]-Prazosin in a total volume of 0.25 mL of Tris-HCl (50 mM, pH 7.4, 10 mM MgSO4). Incubations were carried out for 60 min at 25° C. All assays were terminated by dilution with 5 mL of ice-cold Tris-HCl (10 mM), pH 7.4, and solution were filtered through glass-fiber filters (Whatman GF/F; presoaked in 0.5% polyethyleneimine for 30 min at 25° C.). Filters were then washed three times with 5 mL of ice-cold Tris-HCl (50 mM, pH 7.4), and counted in Hionic-Fluor cocktail (Packard, Groningen, the Netherlands). The corresponding IC50 values were determined with Origin 6.0 software (OriginLab, Northampton, Mass.) and were used for the calculation of the apparent Ki values with the Cheng-Prusoff equation. See, Biocheni. Pharmacol. 1973, 22, 3099-3108.

Another experiment has as its target T2, 5HT1A receptor (Rattus norvegicus, UniProt P19327).
T2 construct: The brains were rapidly removed, and hippocampus, frontal cortex, hypothalamus, and striatum were hand-dissected on ice; from tissue; host or cells: male Sprague-Dawley rat hippocampus membranes
T2 sequence (P19327 1-422): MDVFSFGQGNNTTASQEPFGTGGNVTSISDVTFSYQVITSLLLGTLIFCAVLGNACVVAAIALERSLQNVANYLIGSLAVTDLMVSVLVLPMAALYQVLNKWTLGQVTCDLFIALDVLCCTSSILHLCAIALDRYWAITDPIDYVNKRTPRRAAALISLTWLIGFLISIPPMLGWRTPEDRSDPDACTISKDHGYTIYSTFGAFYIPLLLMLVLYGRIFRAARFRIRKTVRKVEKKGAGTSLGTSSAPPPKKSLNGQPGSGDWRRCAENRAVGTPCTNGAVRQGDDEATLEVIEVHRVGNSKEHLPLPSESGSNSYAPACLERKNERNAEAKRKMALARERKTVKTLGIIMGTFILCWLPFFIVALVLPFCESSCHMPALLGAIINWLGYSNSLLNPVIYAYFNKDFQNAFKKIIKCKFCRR
Nature of the experiment: 5HT1A receptor competition binding assay with [3H]-8-OH-DPAT. Conditions: apparent Ki, rat hippocampus. As to the method: The in vitro 5HT1A binding affinities of rhenium coordinated complexes were determined in a competition assay using rat hippocampus and high-affinity 5HT1A-ligand [^3H]-8-OH-DPAT (135 Ci/mmol, NEN Life Science Inc., Cambridge, Mass.). See, Brain Res. 1995, 673, 217-225.
Male Sprague-Dawley rats (weighing 150-170 g) were sacrificed using anesthesia agent isoflurane. The brains were rapidly removed, and hippocampus, frontal cortex, hypothalamus, and striatum were hand-dissected on ice and stored at −70° C. Tissue was thawed at room temperature and homogenized using a Brinkmann Polytron tissue disrupter in 50 volumes (wt/vol) of ice-cold 50 mM Tris-HCl buffer (pH 7.4). The suspension was centrifuged twice at 27,000 g for 20 min at 4° C. The membrane pellets were resuspended in 50 volumes of (wt/vol) Tris-HCl buffer and incubated at 37° C. for 20 min in a water bath, before a final centrifugation step (27,000 g; 20 min; 4° C.). The final tissue pellets were stored at −70° C. until assayed.
as §1, with “Twelve” for “The frontal cortex of rat brain was prepared as described above and store at −70° C. until used in the binding assays. Ten”, “1×10^−11” for “1×10^−10”, “1×10^−4” for “1×10^−3”, “[^3H]-8-OH-DPAT” for “[^3H]-Prazosin”, “Biochem.” for “Biocheni.”

Another experiment concerns the target T3, σ1 receptor (Cavia porcellus, UniProt Q60492).
T3 construct: The membranes were prepared from guinea pig brain (minus cerebellum) as described above; from tissue; host or cells: guinea pig brain (minus cerebellum) membranes
Nature of the experiment: Sigma-1 receptor competition binding assay with [3H]-(+)-pentazocine. Details: species or system guinea pig. Conditions: apparent Ki (Cheng-Prusoff), brain membranes. As to the method: The in vitro σ1 receptor binding affinities of rhenium coordinated complexes were determined in a competition assay using […] and high-affinity σ1 ligand [3H]-(+)-pentazocine (28 Ci/mmol, NEN Life Science Inc., Cambridge, Mass.). See, Mol. Neuropharmacol. 1993, 3, 117-126.
The membranes were prepared from guinea pig brain (minus cerebellum) as described above and stored at −70 ° C. Twelve concentrations of the nonradioactive rhenium complexes ranging from 1×10^−11 to 1×10^−3 and protein samples (0.15 mg of membrane protein) were incubated with […] [3H]-(+)-pentazocine in a total volume of 0.25 mL of Tris-HCl (50 mM, pH 8.0). Incubations were carried out for 120 min at 25° C. All assays were terminated by dilution with 5 mL of ice-cold Tris-HCl (10 mM), pH 8.0, and solution were filtered through glass-fiber filters (Whatman GF/F; presoaked in 0.5% polyethyleneimine for 30 min at 25° C.). Filters were then washed three times with 5 mL of ice-cold Tris-HCl (50 mM, pH 8.0), and counted in Hionic-Fluor cocktail (Packard, Groningen, the Netherlands). The corresponding IC50 values were determined with Origin 6.0 software (OriginLab, Northampton, Mass.) and were used for the calculation of the apparent Ki values with the Cheng-Prusoff equation. See, Biochem. Pharmacol. 1973, 22, 3099-3108.

T3 sequence (Q60492 whole entry): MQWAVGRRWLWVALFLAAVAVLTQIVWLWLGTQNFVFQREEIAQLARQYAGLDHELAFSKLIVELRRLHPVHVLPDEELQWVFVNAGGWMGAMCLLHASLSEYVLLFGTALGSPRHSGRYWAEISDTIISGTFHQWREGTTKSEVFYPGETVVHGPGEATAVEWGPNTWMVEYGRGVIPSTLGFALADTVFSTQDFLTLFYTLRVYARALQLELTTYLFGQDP

`O=C1CN(CCCN2CCC(c3ccccc3)CC2)CC[S][Re]2(=[O])[S]CC[N]12` (stereo not shown) [Re-21]: the Ki on σ2 receptor amounted to 84.6 ± 7.9 nM; on α1 receptor it was 39 ± 4 nM; on 5HT1A receptor, 55.7 ± 8.3 nM; at σ1 receptor, 553 nM.
